Measured values taken from publication PMC4915154, “Development of background-free tame fluorescent probes for intracellular live cell imaging” (Nature Communications, 2016).

Assays:
[1] = system: azide-tagged intracellular organelles in U-2 OS cells; assay: Live cell SPAAC labelling of azide-tagged organelles (mitochondria, lysosome, golgi apparatus); format: cell-based, human; conditions: U-2 OS cells pre-treated with TPP-Az, Sphingo-Az or Morph-Az, 2 μM probe, 1 h, 37 °C
From the text: Next, we investigated intracellular imaging in live cells using CO-1. We synthesized various azide-bearing reporters: TPP-Az, a triphenylphosphonium analogue which accumulates in mitochondria; Sphingo-Az, a ceramide analogue to target golgi apparatus; and Morph-Az, an azide derivative with morpholine moiety as a directing group for lysosome (Fig. 3a). SPAAC covalent labelling reactions between CO-1 and all azide reporters in vitro were clean and rapid. We anticipated that the cell permeable CO-1 is capable of labelling any azide reporters effectively, regardless the reporters' cellular localization. We added 2 μM CO-1 to the growth media of U-2 OS cells pre-treated with TPP-Az, Sphingo-Az or Morph-Az separately. Confocal fluorescence images were then taken after probe washing.
Figure 3 Live cell imaging with CO-1. (a) Chemical structures and schematic illustration of the covalent labelling of azide-tagged organelles using CO-1 in live cells. (b) Fluorescence imaging of mitochondria, lysosome and golgi apparatus in U-2 OS cells labelled with CO-1. Cells pre-treated with TPP-Az, Morph-Az or Sphingo-Az were incubated with 2 μM CO-1 in growth media at 37 °C for 1 h and followed by counterstaining with organelle trackers. Scale bar, 15 μm. (c) Fluorescence imaging of histone H2B in live U-2 OS. U-2 OS cells were co-transfected with plasmids pIre-Azi3 and pmH2B-6-mKate2-16tag to incorporate UAA Azi into H2B-mKate2 at site 16. After Azi incorporation, cells were labelled with 10 μM CO-1 for 90 min at 37 °C. Cells were then washed and imaged. The mKate2 (red) signals were detected in cell nuclei only, and colocalized with the CO-1 (green) signals in the merged image. Scale bar, 5 μm.
U-2 OS cells were treated with 5 μM TPP-Az, in culture media for 2 h at 37 °C. After incubation, cells were washed and added with 2 μM CO-1 probe. Labelling was allowed to proceed for 1 h at 37 °C in the incubator chamber. […]
Fluorescence imaging of mitochondria, lysosome and golgi apparatus in U-2 OS cells labeled with CO-1H. […] In contrast to CO-1, high fluorescence background from CO-1H was observed. […]

[2] = system: human histone H2B (H2B-mKate2 fusion with Azi at site 16) in U-2 OS cells; assay: Histone H2B imaging in live cells (Azi incorporated in H2B-mKate2); format: cell-based; conditions: live U-2 OS cells, 10 μM, 37 °C
From the text: The red fluorescent protein mKate2 was fused to the C terminus of human histone H2B as a red fluorescent marker. Using the in vivo unnatural amino acid (UAA) technology,[27][28] an azide-bearing UAA, p-azido-L-phenylalanine (Azi), was site-specifically incorporated at site 16 of mKate2 of the fusion protein H2B-mKate2, which was expressed in live U-2 OS cells. The cells were labelled with CO-1, washed to remove unreacted CO-1, and then imaged with laser scanning confocal microscopy.
U-2 OS cells were transfected with 1 μg DNA of each plasmid using Lipofectamine2000 in 35 mm glass bottom dishes according to the manufacturer protocol. Azi (purchased from Bachem) was added 1 h before transfection at a final concentration of 0.5 mM. Plasmid pIre-Azi3 (expressing the orthogonal amber suppressor transfer RNA (tRNA) and the E2AziRS specific for Azi) was co-transfected with plasmid pmH2B-6-mKate2-16tag in a 1:1 molar ratio. After 24 h, cells were washed three times with culture medium (DMEM with 10% FBS) (15 min each time). Growth media containing 10 μM CO-1 was then added to the dishes, and cells were incubated at 37 °C for 90 min followed by 4 times washing with growth media (30 min each time). Laser scanning confocal microscopy (Zeiss LSM 700) was used for imaging. The same conditions and settings were used for imaging control and experimental cells.
U-2 OS cells were transfected with plasmid pmH2B-6-mKate2. After 24 hours, cells were
labeled with 10 μM CO-1 for 90 minutes at 37 °C. Cells were washed to remove the unreacted
CO-1 and then imaged for mKate2 (red) and CO-1 (green) signals. Scale bar, 5 μm.
(1 picture or pasted object on this page, not shown here)

Nuclear membrane permeability ([2]; 90 min): pass through nuclear membrane
Compound: Cc1cc(C)n2c1C(CCNC(=O)CCC(=O)OCC1C3CCC#CCCC31)=C1C=CC=[N+]1[B-]2(F)F (centres unmarked) [CO-1]
Fluorescence background after washing [1]: Clean fluorescence background
Labelling of azide-tagged organelles [1]: clearly labelled the azide-tagged intracellular organelles in live cells
Labelling of Azi-bearing histone H2B-mKate2 ([2]; 90 min): specific labelling of histone H2B
Labelling of wild type H2B-mKate2 (control without Azi) ([2]; 90 minutes): did not label wild type H2B-mKate2
